Source: patent US20250154202A1, “CYCLIC EPITOPE TAGS” (BIONTECH SE, priority 2022, published 2025)
Where two headings read alike, the source gives them in different places.

What was measured:
[1] = mouse, in vivo, iv; for AUC(0-inf): AUC0-inf; for AUC(0-t): AUC0-t
Method: (§1) C57BL/6NRj mice were obtained from Janvier Labs, France. In this study, approximately 8-week-old female mice were used.
(§2) Prior to administration into the lateral tail vein, the body weight of the animals was determined to calculate the individual volume of the injecting compound (5 mL/kg body weight). The injection, as well as the blood sampling, were carried out under short anesthesia (0.7 L/min O2, 1.7 L/min N2O, 2% Isoflurane). Blood was sampled from the retro-orbital plexus using microhematocrit capillary (Ø 0.8 mm) and collected into K3EDTA tubes, at the time points indicated in Table 10.
(§3) The plasma was separated by centrifugation (10,000×g; 10 min; 4° C.), aliquoted into microtubes and stored at −80° C.
(§4) 20 μl of each plasma sample was transferred into PCR tubes. 80 μl IS (internal standard)-solution in acetonitrile+1% FA was added for protein precipitation.
(§5) The sample tubes were sealed with pierceable cap mats and vortexed. After homogenization for 5 min in an ultrasonic bath the samples were centrifuged at 3000 rpm at ambient temperature for 15 min. 1 μl supernatant was injected into the instrument for LC-MS/MS analysis. For LC-MS/MS quantification a ExionLC™ UHPLC coupled to a QTRAP® 6500+ mass spectrometer (Sciex) was used in ESI positive mode. Parameters for mass spectrometry were listed in the tables below, Chromatographic separation was achieved on a ACQUITY UPLC BEH C18 column (Waters, 1.7 μm, 2.1×50 mm).
(§6) Compound concentrations in plasma samples were calculated using a 10-point calibration curve in plasma over a concentration range of 1 to 1000 ng/ml. QC samples of 1, 10, 100, 1000 ng/ml were analyzed before and after each dose group. Samples exceeding the upper limit of quantification (1000 ng/ml) were re-analyzed after 10-fold dilution in blank plasma. All calculations were performed in Sciex OS Version 1.7.0.36606 and MS-EXCEL®.
(§7) Pharmacokinetic parameters were calculated for both compounds using the software Kinetica (version 4.4.1, Thermo Scientific) applying a non-compartmental model (NCA).

[2] = human, plasma
Method: (§8) Plasma stability measurements were performed by spiking 5 μl of a 1 mM compound stock solution in DMSO into 495 μl of human or mouse Li-heparin plasma (Innovative Research, Cat. No, IPLALIH5OML (human) and IMS-BC-N (Balb C mouse). The spiked plasma was distributed in 50 μl aliquots into capped PCR tubes for incubation at 37° C. At each time point (0, 2, 6, 24 hours*) 3*aliquots were withdrawn from the incubator. Enzymatic reactions were quenched directly after withdrawal by adding 100 μl of acetonitrile/formic acid=99/1 (v/v). Quenched samples were stored at ambient temperature until the end of the incubation period (24 hrs*). After centrifugation, the supernatant was transferred into fresh vials and analyzed by LC-MS/MS in ESI positive mode (Waters ACQUITY UPLC I-Class System (SM-FTN) with Xevo TQD triple quadrupole mass spectrometer with control software Waters MassLynx). […] Values below the limit of quantification (0.1 μM) and outliers of triplicate results were excluded from further calculations. An exponential regression curve was fitted onto the concentration results. Half-life times were calculated from the slope of the regression curve (t1/2=ln(2)/slope).
(§9) For some samples, as indicated below, the incubation time was 6 hours. The 24 hour data was measured in triplicates whereas the 6 hour data was measured in duplicates.

[3] = mouse, plasma
[4] = mouse, in vivo, iv
Method: as §1, §2, §3, §4, §5, §6, §7

in vivo = details: female, C57BL/6NRj, mouse, iv, 10 mg/kg
Method: as §1, §2, §3, §4, §5, §6, §7

in vitro [5] = details: human, plasma, Conc. (% of T0)
Method: as §8, §9

in vitro [6] = details: Balb C, mouse, plasma

**Q.** For “Ac-PSRLEEELRRRLTE-NH2 [SD14316, Ac-Pro-Ser-Arg-Leu-Glu-Glu-Glu-Leu-Arg-Arg-Arg-Leu-Thr-Glu-NH2]”, which MRT inf ([1]; 3 mg/kg) is on record?
**A.** 4 min

**Q.** What about the MRT last ([1]; 3 mg/kg) of the same substance?
**A.** 3.7 min

**Q.** And the Tmax ([1]; 3 mg/kg)?
**A.** 5 min

**Q.** What about the clearance ([1]; 3 mg/kg) of the same substance?
**A.** 962 mL/min/kg

**Q.** What about the AUC(0-inf) ([1]; 3 mg/kg) of the same substance?
**A.** ~52 ng·h/mL

**Q.** And the AUC(0-t) ([1]; 3 mg/kg)?
**A.** 51 ng·h/mL

**Q.** What about the C0 ([1]; 3 mg/kg) of the same substance?
**A.** ~656 ng/mL

**Q.** And the Cmax ([1]; 3 mg/kg)?
**A.** 306 ng/mL

**Q.** What about the Vd ([1]; 3 mg/kg, Vss) of the same substance?
**A.** 3.89 L/kg

**Q.** What about the Vd ([1]; 3 mg/kg, Vz) of the same substance?
**A.** ~6.3 L/kg

**Q.** And the MRT inf ([1]; 10 mg/kg)?
**A.** 4.1 min

**Q.** And the MRT last ([1]; 10 mg/kg)?
**A.** 4 min

**Q.** What about the Tmax ([1]; 10 mg/kg) of the same substance?
**A.** 5 min

**Q.** And the clearance ([1]; 10 mg/kg)?
**A.** 724 mL/min/kg

**Q.** And the AUC(0-inf) ([1]; 10 mg/kg)?
**A.** 230 ng·h/mL

**Q.** What about the AUC(0-t) ([1]; 10 mg/kg) of the same substance?
**A.** 230 ng·h/mL

**Q.** And the C0 ([1]; 10 mg/kg)?
**A.** ~2400 ng/mL

**Q.** And the Cmax ([1]; 10 mg/kg)?
**A.** 1660 ng/mL

**Q.** And the Vd ([1]; 10 mg/kg, Vss)?
**A.** 2.95 L/kg

**Q.** What about the Vd ([1]; 10 mg/kg, Vz) of the same substance?
**A.** 4.48 L/kg

**Q.** And the half-life ([2]; Flag (half-life, assay exceeded))?
**A.** > 360 min

**Q.** And the half-life ([2]; Half-life time)?
**A.** 646 min

**Q.** And the half-life [3]?
**A.** 228 min

**Q.** And the AUCextra ([4]; 3 mg/kg)?
**A.** ~1.5^(1) %

**Q.** What about the Vc ([4]; 3 mg/kg) of the same substance?
**A.** ~4574^(1) mL/kg

**Q.** And the t1/2effective ([4]; 3 mg/kg)?
**A.** ~2.6^(1) min

**Q.** And the t1/2initial ([4]; 3 mg/kg)?
**A.** ~1.6^(1) min

**Q.** What about the t1/2terminal ([4]; 3 mg/kg) of the same substance?
**A.** ~4.5^(1) min

**Q.** And the λinitial ([4]; 3 mg/kg)?
**A.** 0.45^(2) min^−1

**Q.** And the λterminal ([4]; 3 mg/kg)?
**A.** 0.15^(2) min^−1

**Q.** What about the AUCextra ([4]; 10 mg/kg) of the same substance?
**A.** 0.2%

**Q.** What about the Vc ([4]; 10 mg/kg) of the same substance?
**A.** ~4175^(1) mL/kg

**Q.** What about the t1/2effective ([4]; 10 mg/kg) of the same substance?
**A.** 2.8 min

**Q.** And the t1/2initial ([4]; 10 mg/kg)?
**A.** ~1.3^(1) min

**Q.** And the λinitial ([4]; 10 mg/kg)?
**A.** 0.52^(2) min^−1

**Q.** And the λterminal ([4]; 10 mg/kg)?
**A.** 0.16 min⁻¹

**Q.** What about the half-life (in vivo) of the same substance?
**A.** 4.3 min

**Q.** And the remaining at 1 h, 10 µM (in vitro [5])?
**A.** 89%

**Q.** What about the remaining at 3 h, 10 µM (in vitro [5]) of the same substance?
**A.** 78.9%

**Q.** And the remaining at 6 h, 10 µM (in vitro [5])?
**A.** 66.9%

**Q.** And the remaining at 2 h, 10 µM (in vitro [6])?
**A.** 72.7%

**Q.** What about the remaining at 6 h, 10 µM (in vitro [6]) of the same substance?
**A.** 33.8%
